Measurements taken from patent US4346094A, “3-Aryl-5-isothiazolecarboxylic acids and related compounds used to lower uric acid levels” (Eli Lilly and Company, priority 1980, dated 1982).
Read-outs that look alike come from different tables or passages of the source.

Tests used:
xanthine oxidase = biological target: T1, xanthine oxidase (Bos taurus, UniProt P80457); test: in vitro xanthine oxidase assay (rate of uric acid formation from xanthine); assay type: biochemical
T1 construct: purchased Sigma Chemical Company, St. Louis, Mo; host or cells: milk (grade III, chromatographically purified)
T1 sequence (P80457 whole entry): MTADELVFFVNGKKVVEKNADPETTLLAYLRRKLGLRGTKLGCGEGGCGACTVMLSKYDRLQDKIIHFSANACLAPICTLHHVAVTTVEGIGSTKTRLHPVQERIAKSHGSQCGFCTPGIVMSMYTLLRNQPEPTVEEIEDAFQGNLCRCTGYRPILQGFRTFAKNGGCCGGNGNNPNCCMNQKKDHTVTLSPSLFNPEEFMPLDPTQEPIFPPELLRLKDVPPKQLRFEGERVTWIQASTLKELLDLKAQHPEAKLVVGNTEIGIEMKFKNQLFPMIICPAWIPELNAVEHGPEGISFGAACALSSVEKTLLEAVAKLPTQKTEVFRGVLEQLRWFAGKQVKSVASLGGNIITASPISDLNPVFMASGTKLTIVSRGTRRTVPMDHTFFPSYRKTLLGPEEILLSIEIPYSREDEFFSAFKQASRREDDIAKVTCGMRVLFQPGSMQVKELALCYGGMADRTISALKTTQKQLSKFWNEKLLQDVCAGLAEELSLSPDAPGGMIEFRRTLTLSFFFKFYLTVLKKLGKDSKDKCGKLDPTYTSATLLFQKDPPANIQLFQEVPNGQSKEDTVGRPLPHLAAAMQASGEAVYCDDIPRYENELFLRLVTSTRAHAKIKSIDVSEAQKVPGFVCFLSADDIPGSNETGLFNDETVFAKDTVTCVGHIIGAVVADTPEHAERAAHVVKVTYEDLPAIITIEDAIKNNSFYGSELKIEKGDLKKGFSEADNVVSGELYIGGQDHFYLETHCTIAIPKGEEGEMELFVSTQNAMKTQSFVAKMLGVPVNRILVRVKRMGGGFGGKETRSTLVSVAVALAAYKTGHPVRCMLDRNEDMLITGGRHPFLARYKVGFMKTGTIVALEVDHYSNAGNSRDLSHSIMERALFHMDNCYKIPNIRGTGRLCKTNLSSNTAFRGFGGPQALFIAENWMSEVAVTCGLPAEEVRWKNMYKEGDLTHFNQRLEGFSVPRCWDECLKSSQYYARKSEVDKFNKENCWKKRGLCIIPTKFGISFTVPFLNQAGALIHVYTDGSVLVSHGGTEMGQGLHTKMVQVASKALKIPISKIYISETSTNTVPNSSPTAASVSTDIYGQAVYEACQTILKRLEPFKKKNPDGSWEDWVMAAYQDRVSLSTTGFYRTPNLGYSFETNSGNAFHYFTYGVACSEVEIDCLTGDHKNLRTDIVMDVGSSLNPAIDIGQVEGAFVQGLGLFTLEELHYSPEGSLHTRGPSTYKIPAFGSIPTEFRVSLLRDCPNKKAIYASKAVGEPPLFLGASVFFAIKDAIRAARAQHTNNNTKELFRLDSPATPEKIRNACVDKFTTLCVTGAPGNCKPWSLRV
Procedure: Since uric acid is produced by the oxidation of, first, hypoxanthine to xanthine and, second, of xanthine to uric acid via the enzyme, xanthine oxidase, an inhibitor of xanthine oxidase in vivo would obviously decrease the uric acid concentrations in the blood.
Xanthine oxidase activity was measured at room temperature by the rate of uric acid formation from xanthine substrate. In a total volume of 1 ml., the incubation mixture contained 50 micromoles of potassium phosphate buffer at pH 7.4, 0.05 micromoles of xanthine and 0.01 units of enzyme preparation (chromatographically purified milk xanthine oxidase, grade III, obtained from Sigma Chemical Company, St. Louis, Mo.). The absorbence change at 292 nm was recorded by a Gilford recording spectrophotometer and the uric acid formed was calculated using an extinction coefficient of 12 mM^-1 Cm^-1 at 292 nm.

plasma uric acid = test: in vivo lowering of plasma uric acid in rats, oral (ED50); conditions: Rattus norvegicus, read-out: ED50 (dose which reduces plasma level of uric acid by one-half)
Procedure: (§1) All of the compounds corresponding to formula I above which applicants have prepared are active in vivo in lowering plasma uric acid levels. […] The first method, the spectrofluorometric method, was modified from the procedure of Sumi et al., Clinica. Chimica. Acta., 73, 233 (1976). Rats were sacrificed by decapitation and their blood collected into vacutainer tubes containing heparin via heparinized glass funnels. The blood was centrifuged for 8 minutes at 4000 rpm after which time the plasma was separated and diluted 1:1 with water. Plasma protein was precipitated by addition of acetic acid to a final concentration of 0.007 molar and boiling the resulting mixture for 5 minutes in Sorval tubes. Clear deproteinized plasma was obtained after centrifugation of the resulting plasma for 30 minutes at 25,000 rpm. Uric acid was assayed as follows: 0.2 ml. aliquots of the clear deproteinized plasma were mixed with 120λ of uricase (0.045 mu/ml.) and incubated for 30 minutes at 27° C. 1.0 ml. of a p-hydroxyphenylacetic acid buffer was added. Samples obtained from feeding rats or dogs serial doses of the compound under test were incubated with the above buffer solution for 30 minutes at 27° C. Fluorescence of the solution was measured in quartz tubes using an Aminco Bowman-Spectrofluorimeter having excitation of 321 nm and emission at 412 nm. Five uric acid standards from 6-30 micromolar were assayed for each test and each standard yielded a linear curve.
The second method was called the HPLC-EC Detection method. Here, blood plasma was collected from rats as described above and from dogs in heparinized syringes from the cefalic vein in the forearm and centrifuged with Sure-Sep to separate plasma. Deproteninized plasma was prepared in each instance by first diluting one volume of plasma with one volume of an internal standard solution, 4 mcg./ml., and then addition of two volumes of 5% trichloroacetic acid. Standards were added to control plasma in the range of 0-8 mcg./ml. of uric acid. Samples obtained by feeding graded doses of drug under test to dogs or rats were mixed for 30 seconds and then centrifuged in an Eppendorf microcentrifuge. Supernates were diluted 1:10 in column buffer and assayed for uric acid. Internal standards used were 3-methyluric acid for the rat samples and 3,9-dimethyluric acid for dog samples. Assays were performed as follows using a Bioanalytic Systems Inc. LC-44 analyser and an electrochemical detector system based on an Altex model 110 pump coupled with a CP-O carbon paste electrodetector. Samples for assay were put into a DuPont 834 autosampler and automatically injected into a laboratory packed stainless steel column (4.1 mm id, 1/4" od 25 cm.1) containing reverse phase packing (sperisorb. O.D. 5μ Regis Chemical Co.). The column buffers employed were 0.1 M disodium phosphate, 0.05 M citric acid and 10% methanol for rat samples; 0.1 M disodium phosphate, 10% methanol and citric acid titrated at pH 6.5 for dog samples. The same internal standards were employed as before. Retention times for uric acid, 3-methyluric acid and 3,9-dimethyluric acid were established. Uric acid levels were then calculated from peak areas by computer analysis. Table V which follows gives the oral ED50 in rats for a group of the preferred compounds of this invention (those in which the 3-position of the isothiazole ring carries a 3-trifluoromethylphenyl group). […]

[1] = oral acute toxicity in mice (LD50); conditions: mouse, in vivo; for LD50: oral, mice, read-out: LD50 (dose which kills one-half of the animals); for therapeutic index (LD50/ED50): oral LD50 mice / oral ED50 rats, read-out: Ratio of LD50 to ED50
Source text: The compounds represented by the above formula are also relatively non-toxic. In column 3 of Table V are listed the oral LD50 for mice in mg. per kg. for each of the compounds of column 1 (dose which kills one-half of the animals). Finally, column 4 in Table V gives the ratio of LD50 to ED50. It will be seen that the ratio of the LD50 to the ED50 is quite high, giving a substantial margin of safety for using the compounds of this invention in treating gout in mammals, particularly humans.

[2] = oral administration of ester and amides, percent inhibition in vivo
Procedure: as §1
The second method was called the HPLC-EC Detection method. Here, blood plasma was collected from rats as described above and from dogs in heparinized syringes from the cefalic vein in the forearm and centrifuged with Sure-Sep to separate plasma. Deproteninized plasma was prepared in each instance by first diluting one volume of plasma with one volume of an internal standard solution, 4 mcg./ml., and then addition of two volumes of 5% trichloroacetic acid. Standards were added to control plasma in the range of 0-8 mcg./ml. of uric acid. […] Uric acid levels were then calculated from peak areas by computer analysis. […]

[3] = milk xanthine oxidase 0.01 units, 0.05 micromoles xanthine in 1 ml, pH 7.4, room temperature, 292 nm, read-out: I50 (concentration of drug which inhibits 50% of the oxidation of xanthine to uric acid by the xanthine oxidase preparation) (converted)

| Percent Inhibition ([2]; oral dosage 50 mg.kg) | Percent Inhibition ([2]; oral dosage 25 mg.kg) | Structure (SMILES) | IC50 (xanthine oxidase; [3]) | ED50 (plasma uric acid) | LD50 [1] | IC50 (xanthine oxidase) | therapeutic index (LD50/ED50) [1] |
| --- | --- | --- | --- | --- | --- | --- | --- |
|  |  | Nc1c(-c2cccc(C(F)(F)F)c2)nsc1C(=O)O [R=3-CF3, R^1=H, 3-(3-trifluoromethylphenyl)-4-amino-5-isothiazolecarboxylic acid] | 76.3 nM | 17.5 mg/kg | 798 ± 66 mg/kg |  |  |
|  |  | O=C(O)c1snc(-c2cccc(C(F)(F)F)c2)c1Br [R=3-CF3, X=Br, 3-(3-trifluoromethylphenyl)-4-bromo-5-isothiazolecarboxylic acid] |  | 5.2 mg/kg | ~260 mg/kg | 51.1 nM | ~50 |
|  |  | O=C(O)c1snc(-c2cccc(C(F)(F)F)c2)c1Cl [R=3-CF3, X=Cl, 3-(3-trifluoromethylphenyl)-4-chloro-5-isothiazolecarboxylic acid] |  | 6.4 mg/kg | 138 ± 12 mg/kg | 32.5 nM | 21.6 |
|  |  | O=C(O)c1cc(-c2cccc(C(F)(F)F)c2)ns1 [R=3-CF3, X=H, 3-(3-trifluoromethylphenyl)-5-isothiazolecarboxylic acid] | 54.9 nM | 15 mg/kg | 201 ± 13 mg/kg |  | 13.4 |
|  |  | O=C(O)c1snc(-c2cccc(C(F)(F)F)c2)c1O [R=3-CF3, X=OH, 3-(3-trifluoromethylphenyl)-4-hydroxy-5-isothiazolecarboxylic acid] | 25.6 nM | 18 mg/kg | 727 ± 35 mg/kg |  | 40 |
| 13% |  | NC(=O)c1snc(-c2cccc(C(F)(F)F)c2)c1N [R=NH2, 3-(3-trifluoromethylphenyl)-4-amino-5-isothiazolecarboxamide] |  |  |  |  |  |
|  | 32% | CNC(=O)c1snc(-c2cccc(C(F)(F)F)c2)c1N [R=NHCH3, N-methyl 3-(3-trifluoromethylphenyl)-4-amino-5-isothiazolecarboxamide] |  |  |  |  |  |
|  | 64% | COC(=O)c1snc(-c2cccc(C(F)(F)F)c2)c1N [R=OCH3, Methyl 3-(3-trifluoromethylphenyl)-4-amino-5-isothiazolecarboxylate] |  |  |  |  |  |
